Data from ChEMBL document CHEMBL1201862, “PubChem BioAssay data set” (2004).
Calls of active or inactive are those of the source.

Assays:
[1] = target: Peroxisome proliferator-activated receptor gamma/Nuclear receptor coactivator 2 (Homo sapiens, UniProt P37231); test: (§1) TR-FRET dose response biochemical High Throughput Screening assay for agonists of the steroid receptor coactivator 2 (SRC-2) recruitment by the peroxisome proliferator-activated receptor gamma (PPAR gamma): non-selective agonists. [Related pubchem assays: 1297, 1032 ]; format: functional
[2] = target: Peroxisome proliferator-activated receptor gamma/Nuclear receptor coactivator 1 (Homo sapiens, UniProt P37231); test: as §1, with “1 (SRC-1)” for “2 (SRC-2)”, “assays (depositor defined):AID1300, AID1808, AID504735, AID631]” for “assays: 1297, 1032 ]”; format: protein assay
[3] = target: Peroxisome proliferator-activated receptor gamma/Nuclear receptor coactivator 3 (Homo sapiens, UniProt P37231); test: as §1, with “3 (SRC-3)” for “2 (SRC-2)”, “1301 (Confirmation screen.), 1048 (Primary screen.)]” for “1297, 1032 ]”; format: functional
[4] = fluconazole-exposed Candida albicans growth modulators – fluorescence, retest, confirmation (AID 2467); format: functional, cell-based
[5] = NIH-3T3 fibroblast cytotoxicity, dose response, cytotoxicity control, cell-based, fluorescence, Alamar Blue, secondary assay (AID 2327); format: functional;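 also: NIH-3T3 mouse fibroblasts cultured with fluconazole at 8 µg/mL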
X-box-binding protein 1 = X-box-binding protein 1 (Homo sapiens, UniProt P17861); format: functional, Cricetulus griseus;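 also: confirmatory dose-response counter-screen serving a CHOP assay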
Chain of X-box-binding protein 1 (P17861 whole entry): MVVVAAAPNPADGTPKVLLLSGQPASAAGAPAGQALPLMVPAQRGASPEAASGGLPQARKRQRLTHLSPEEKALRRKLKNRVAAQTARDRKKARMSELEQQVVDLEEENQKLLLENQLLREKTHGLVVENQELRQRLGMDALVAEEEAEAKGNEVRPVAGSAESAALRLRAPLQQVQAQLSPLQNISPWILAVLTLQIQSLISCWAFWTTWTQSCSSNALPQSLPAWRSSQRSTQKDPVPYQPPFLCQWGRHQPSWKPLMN

[6] = target: DNA damage-inducible transcript 3 protein (Mus musculus, UniProt P35639); format: functional, Cricetulus griseus
Chain of DNA damage-inducible transcript 3 protein (P35639 whole entry): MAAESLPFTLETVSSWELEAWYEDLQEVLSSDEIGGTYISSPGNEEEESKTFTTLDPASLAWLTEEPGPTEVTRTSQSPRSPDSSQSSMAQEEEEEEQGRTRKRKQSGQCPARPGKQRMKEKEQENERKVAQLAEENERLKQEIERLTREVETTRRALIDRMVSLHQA

[7] = target: G-protein coupled receptor 55 (Homo sapiens, UniProt Q9Y2T6); test: inhibition of LPI-stimulated GPR55 beta-arrestin translocation – imaging, U2OS, beta-arrestin-GFP, LPI agonist, primary screen (AID 2013); format: functional;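 also: antagonist potency measured as reduced agonist-driven arrestin aggregation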
Exodeoxyribonuclease V = Exodeoxyribonuclease V (Escherichia coli (strain K12), UniProt P04993+P07648+P08394); test: RecBCD inhibition via phage-restricted bacterial growth – absorbance, V66 E. coli, mutant T4 phage, counter-screen for AddAB inhibitor project, dose response (AID 492957); format: functional, cell-based, Escherichia coli str. K-12 substr. MG1655
[8] = Counterscreen for AddAB inhibitors: absorbance-based bacterial cell-based high throughput dose response assay for inhibitors of bacterial viability. [Related pubchem assays (depositor defined):AID435030, AID449728, AID449731, AID488942, AID488955, AID488956]; format: functional
Perilipin-1/ABHD5 = Perilipin-1/ABHD5 (Homo sapiens, UniProt O60240+Q8WTS1); test: Luminescence-based biochemical high throughput dose response assay for inhibitors of the interaction of the lipase co-activator protein, abhydrolase domain containing 5 (ABHD5) with perilipin-1 (PLIN1) (2K validation set). [Related pubchem assays (depositor defined):AID493027, AID493057]
Chain of Perilipin-1/ABHD5 (Q8WTS1 whole entry, the tested form may be a part): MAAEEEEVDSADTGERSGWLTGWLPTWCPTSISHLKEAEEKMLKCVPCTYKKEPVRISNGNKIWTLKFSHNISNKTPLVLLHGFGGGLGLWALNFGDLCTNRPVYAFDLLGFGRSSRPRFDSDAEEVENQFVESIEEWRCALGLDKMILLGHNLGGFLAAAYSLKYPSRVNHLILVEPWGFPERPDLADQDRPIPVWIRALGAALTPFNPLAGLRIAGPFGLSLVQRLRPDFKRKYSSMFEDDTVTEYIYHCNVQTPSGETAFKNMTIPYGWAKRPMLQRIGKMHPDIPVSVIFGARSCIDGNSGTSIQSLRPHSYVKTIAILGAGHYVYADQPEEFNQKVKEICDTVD
Chain of Perilipin-1/ABHD5 (O60240 whole entry, the tested form may be a part): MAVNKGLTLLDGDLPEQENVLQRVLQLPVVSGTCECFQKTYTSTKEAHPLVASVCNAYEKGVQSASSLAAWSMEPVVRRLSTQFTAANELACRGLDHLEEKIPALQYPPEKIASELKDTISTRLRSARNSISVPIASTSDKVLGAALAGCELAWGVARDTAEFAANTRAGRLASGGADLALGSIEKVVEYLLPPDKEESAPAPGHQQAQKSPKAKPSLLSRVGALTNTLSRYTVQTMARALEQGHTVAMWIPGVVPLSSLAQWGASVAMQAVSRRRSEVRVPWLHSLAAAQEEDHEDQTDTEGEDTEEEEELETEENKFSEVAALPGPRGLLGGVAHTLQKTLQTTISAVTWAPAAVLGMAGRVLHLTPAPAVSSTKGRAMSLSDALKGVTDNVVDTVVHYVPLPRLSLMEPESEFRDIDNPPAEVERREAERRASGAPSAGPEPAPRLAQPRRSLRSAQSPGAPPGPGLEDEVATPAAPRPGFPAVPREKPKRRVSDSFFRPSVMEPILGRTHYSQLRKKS

[9] = target: 1-acylglycerol-3-phosphate O-acyltransferase ABHD5/Perilipin-5 (Homo sapiens, UniProt Q00G26+Q8WTS1); test: Luminescence-based biochemical high throughput dose response assay for inhibitors of the interaction of the lipase co-activator protein, abhydrolase domain containing 5 (ABHD5) with perilipin-5 (MLDP; PLIN5) (2K validation set). [Related pubchem assays (depositor defined):AID493035, AID493241]
Chain of 1-acylglycerol-3-phosphate O-acyltransferase ABHD5/Perilipin-5 (Q00G26 whole entry, the tested form may be a part): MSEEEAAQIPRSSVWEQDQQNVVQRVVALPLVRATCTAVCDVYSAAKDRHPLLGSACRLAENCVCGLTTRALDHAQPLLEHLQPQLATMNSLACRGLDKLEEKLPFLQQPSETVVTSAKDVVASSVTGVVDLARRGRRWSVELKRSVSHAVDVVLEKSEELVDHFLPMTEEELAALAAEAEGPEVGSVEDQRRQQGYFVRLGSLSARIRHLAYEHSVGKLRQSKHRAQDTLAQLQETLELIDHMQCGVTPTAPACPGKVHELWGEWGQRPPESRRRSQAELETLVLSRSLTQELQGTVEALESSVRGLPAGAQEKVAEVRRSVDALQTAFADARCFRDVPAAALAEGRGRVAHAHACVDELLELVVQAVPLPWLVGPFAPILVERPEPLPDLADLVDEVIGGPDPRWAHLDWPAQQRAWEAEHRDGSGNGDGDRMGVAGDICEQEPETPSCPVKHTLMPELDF
Chain of 1-acylglycerol-3-phosphate O-acyltransferase ABHD5/Perilipin-5 (Q8WTS1 whole entry, the tested form may be a part): as the sequence (Q8WTS1 whole entry, the tested form may be a part) above

HEK293 [10] = test: inhibition of NOD1-driven NF-kB reporter – cell-based, luminescence, uHTS, primary screen (AID 1578); format: functional; settings: Homo sapiens
HEK293 [11] = test: NOD2 signaling inhibitors in MDP-stimulated cells, cell-based, uHTS, luminescence (AID 2001); format: functional; settings: Homo sapiens
HEK293 [12] = test: cells; format: functional, cell-based; settings: Homo sapiens
HEK293 [13] = test: cells; format: functional, cell-based; settings: Homo sapiens; remark: listed apart in the source
HEK293 [14] = test: cells; format: functional, cell-based; settings: Homo sapiens; remark: listed apart in the source
[15] = target: Nucleotide-binding oligomerization domain-containing protein 2 (Homo sapiens, UniProt Q9HC29); test: inhibition of NOD2-driven NF-kB reporter – cell-based, luminescence, uHTS, HEK293 (AID 1566); format: functional
Coagulation factor XII = target: T1, Coagulation factor XII (Homo sapiens, UniProt P00748); test: activated coagulation factor XII inhibitor potency, concentration-effect curve, cell-free (AID 716); format: functional
T1 sequence (P00748 whole entry): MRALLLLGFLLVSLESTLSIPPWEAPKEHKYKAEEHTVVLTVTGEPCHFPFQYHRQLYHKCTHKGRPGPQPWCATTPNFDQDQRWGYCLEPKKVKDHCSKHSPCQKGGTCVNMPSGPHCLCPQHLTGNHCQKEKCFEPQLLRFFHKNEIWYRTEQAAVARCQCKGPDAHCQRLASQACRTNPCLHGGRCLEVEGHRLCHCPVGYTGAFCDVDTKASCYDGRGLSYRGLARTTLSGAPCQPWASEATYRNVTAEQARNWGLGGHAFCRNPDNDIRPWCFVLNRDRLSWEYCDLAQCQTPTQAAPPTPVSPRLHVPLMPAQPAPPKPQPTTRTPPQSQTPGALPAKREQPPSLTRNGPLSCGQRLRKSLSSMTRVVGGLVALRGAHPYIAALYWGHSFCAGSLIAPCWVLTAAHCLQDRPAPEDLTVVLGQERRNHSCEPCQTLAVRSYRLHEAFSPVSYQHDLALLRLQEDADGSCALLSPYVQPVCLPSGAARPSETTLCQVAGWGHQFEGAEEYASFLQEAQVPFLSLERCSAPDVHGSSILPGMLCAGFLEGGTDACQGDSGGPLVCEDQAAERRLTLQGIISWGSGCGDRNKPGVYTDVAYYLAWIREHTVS

[16] = target: T2, Voltage-gated N-type calcium channel alpha-1B subunit/Amyloid beta A4 precursor protein-binding family A member 1 (Homo sapiens, UniProt Q00975+Q02410); format: protein assay
T2 sequence (Q00975 whole entry): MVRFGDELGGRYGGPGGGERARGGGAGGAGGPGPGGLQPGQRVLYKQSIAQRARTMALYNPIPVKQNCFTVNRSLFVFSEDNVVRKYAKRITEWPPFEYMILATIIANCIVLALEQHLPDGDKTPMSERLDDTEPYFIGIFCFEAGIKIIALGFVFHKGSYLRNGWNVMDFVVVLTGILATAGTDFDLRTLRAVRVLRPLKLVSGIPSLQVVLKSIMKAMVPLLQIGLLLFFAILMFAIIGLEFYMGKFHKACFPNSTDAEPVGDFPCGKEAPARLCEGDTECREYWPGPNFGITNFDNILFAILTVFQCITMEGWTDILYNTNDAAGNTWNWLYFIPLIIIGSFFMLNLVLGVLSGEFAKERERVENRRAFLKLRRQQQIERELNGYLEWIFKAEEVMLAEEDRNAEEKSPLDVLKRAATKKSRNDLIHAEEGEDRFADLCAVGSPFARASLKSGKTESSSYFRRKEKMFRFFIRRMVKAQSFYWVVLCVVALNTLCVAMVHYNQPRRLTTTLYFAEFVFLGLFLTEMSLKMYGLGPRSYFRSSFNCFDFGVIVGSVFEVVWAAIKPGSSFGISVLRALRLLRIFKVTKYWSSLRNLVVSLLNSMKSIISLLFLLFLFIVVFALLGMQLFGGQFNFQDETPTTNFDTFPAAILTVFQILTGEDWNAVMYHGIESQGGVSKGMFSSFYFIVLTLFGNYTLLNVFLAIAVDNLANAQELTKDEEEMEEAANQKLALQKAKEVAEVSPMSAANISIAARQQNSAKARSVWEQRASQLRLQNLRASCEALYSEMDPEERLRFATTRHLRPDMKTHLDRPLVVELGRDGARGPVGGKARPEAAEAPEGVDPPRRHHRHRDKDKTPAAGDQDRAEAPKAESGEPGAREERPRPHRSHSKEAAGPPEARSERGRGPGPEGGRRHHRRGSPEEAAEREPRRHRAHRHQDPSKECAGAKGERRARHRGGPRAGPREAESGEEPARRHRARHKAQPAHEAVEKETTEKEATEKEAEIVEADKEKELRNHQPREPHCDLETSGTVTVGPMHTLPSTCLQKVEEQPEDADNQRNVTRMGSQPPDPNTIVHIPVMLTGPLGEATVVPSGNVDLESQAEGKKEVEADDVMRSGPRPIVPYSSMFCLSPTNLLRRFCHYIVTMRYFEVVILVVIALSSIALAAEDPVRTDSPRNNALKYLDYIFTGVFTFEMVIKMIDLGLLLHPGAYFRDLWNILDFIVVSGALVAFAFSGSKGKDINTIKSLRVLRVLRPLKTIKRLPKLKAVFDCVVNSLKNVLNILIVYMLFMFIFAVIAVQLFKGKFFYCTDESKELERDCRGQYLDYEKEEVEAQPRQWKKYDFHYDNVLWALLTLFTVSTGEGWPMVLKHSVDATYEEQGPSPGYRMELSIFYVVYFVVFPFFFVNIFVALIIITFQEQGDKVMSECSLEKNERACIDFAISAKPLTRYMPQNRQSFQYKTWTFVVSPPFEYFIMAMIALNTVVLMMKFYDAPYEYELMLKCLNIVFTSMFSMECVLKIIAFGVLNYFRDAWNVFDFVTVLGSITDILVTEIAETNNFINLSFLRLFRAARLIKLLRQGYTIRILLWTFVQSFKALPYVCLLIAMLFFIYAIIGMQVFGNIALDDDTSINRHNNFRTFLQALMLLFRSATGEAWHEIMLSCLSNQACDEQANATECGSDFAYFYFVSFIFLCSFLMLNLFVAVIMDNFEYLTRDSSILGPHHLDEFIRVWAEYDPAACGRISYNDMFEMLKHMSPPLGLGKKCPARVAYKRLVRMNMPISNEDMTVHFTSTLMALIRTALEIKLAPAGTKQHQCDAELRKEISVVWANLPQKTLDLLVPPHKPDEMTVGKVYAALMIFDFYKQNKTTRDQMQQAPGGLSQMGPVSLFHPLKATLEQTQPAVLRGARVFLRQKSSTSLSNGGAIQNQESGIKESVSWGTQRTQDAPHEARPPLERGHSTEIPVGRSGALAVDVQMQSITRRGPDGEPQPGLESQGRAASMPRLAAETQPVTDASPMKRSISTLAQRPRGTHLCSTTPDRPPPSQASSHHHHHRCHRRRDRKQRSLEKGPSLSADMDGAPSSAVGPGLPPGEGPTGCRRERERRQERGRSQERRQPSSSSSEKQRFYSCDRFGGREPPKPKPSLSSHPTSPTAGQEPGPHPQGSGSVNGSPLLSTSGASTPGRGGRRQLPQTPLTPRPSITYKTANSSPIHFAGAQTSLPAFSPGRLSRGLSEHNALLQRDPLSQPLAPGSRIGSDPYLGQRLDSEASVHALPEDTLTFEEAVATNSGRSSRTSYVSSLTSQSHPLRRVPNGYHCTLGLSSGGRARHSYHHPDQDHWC
T2 sequence (Q02410 whole entry): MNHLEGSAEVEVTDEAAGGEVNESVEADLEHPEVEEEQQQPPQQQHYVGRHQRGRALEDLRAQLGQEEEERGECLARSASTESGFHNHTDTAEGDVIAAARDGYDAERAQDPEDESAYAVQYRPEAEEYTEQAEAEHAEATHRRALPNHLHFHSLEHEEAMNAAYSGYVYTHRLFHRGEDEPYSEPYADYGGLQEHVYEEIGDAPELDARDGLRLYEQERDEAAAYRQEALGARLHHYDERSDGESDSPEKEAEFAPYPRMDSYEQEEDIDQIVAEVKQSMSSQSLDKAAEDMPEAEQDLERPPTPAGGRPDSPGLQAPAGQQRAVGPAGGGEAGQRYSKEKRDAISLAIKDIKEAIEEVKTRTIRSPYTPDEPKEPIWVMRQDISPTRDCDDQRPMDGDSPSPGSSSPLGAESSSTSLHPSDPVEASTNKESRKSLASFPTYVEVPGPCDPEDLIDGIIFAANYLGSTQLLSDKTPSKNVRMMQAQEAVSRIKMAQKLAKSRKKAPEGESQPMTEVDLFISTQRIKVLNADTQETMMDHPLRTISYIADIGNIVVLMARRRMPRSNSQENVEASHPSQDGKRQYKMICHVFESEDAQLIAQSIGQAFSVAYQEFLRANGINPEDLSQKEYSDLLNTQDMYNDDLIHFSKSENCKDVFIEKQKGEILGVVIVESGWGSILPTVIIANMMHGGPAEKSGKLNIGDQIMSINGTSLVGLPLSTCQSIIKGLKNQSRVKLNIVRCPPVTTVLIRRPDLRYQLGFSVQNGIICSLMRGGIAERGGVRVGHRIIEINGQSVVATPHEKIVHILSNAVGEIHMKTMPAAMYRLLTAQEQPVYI

[17] = target: T2, Voltage-gated N-type calcium channel alpha-1B subunit/Amyloid beta A4 precursor protein-binding family A member 1; format: protein assay; remark: listed apart in the source

Cn1c(=O)cc(SCC(=O)NCc2ccc(F)cc2)c2ccccc21
EC50 [1]: > 79.4 µM (not active)
EC50 [2]: > 79.4 µM (inactive)
EC50 [3]: > 79.4 µM (not active)

CCCc1ccc(Oc2c[nH]nc2-c2ccc(O)cc2O)cc1
EC50 [4]: > 38 µM (not active)
EC50 [5]: > 150 µM (inconclusive)
Absolute IC50 (XBP1) (X-box-binding protein 1): 10 µM
Absolute IC50 (CHOP) [6]: 10 µM

S=C(Nc1ccc(Oc2ccccc2)cc1)N(CCCN1CCOCC1)Cc1ccccn1
IC50 [7]: 2.71 µM (active)

O=C(CSc1nc2ccccc2s1)Nc1ccc(N2CCOCC2)c(Cl)c1
IC50 (Exodeoxyribonuclease V): > 119 µM (inactive)
IC50 [8]: > 119 µM (inactive)

COc1ccc(C(=O)/C=C/c2cc(C(=O)O)cc3c2OCOC3)c(O)c1
IC50 (Perilipin-1/ABHD5): 4.42 µM (active)
IC50 [9]: 6.24 µM (active)

O=C(CCC1CCCC1)NNC(=O)c1cc2ccccc2cc1O
IC50 (Exodeoxyribonuclease V): > 119 µM (inactive)
IC50 [8]: > 119 µM (inactive)

O=C(Nc1ccc(Cl)cc1)c1cccc(N2C(=O)C3C4CCC(C4)C3C2=O)c1 (stereo not drawn)
EC50 (HEK293 [10]): 12 µM (active)
IC50 (HEK293 [11]): 16.7 µM (inactive)
IC50 (HEK293 [12]): 15.7 µM (active)
IC50 (HEK293 [13]): > 20 µM (inactive)
IC50 (HEK293 [14]): > 20 µM (inactive)
EC50 [15]: > 20 µM (inactive)

COC(=O)COc1cccc(-n2cnnn2)c1
IC50 (Coagulation factor XII): > 50 µM (inactive)

COc1ccc(/C=C/C(=O)NC(=S)Nc2ccc(S(=O)(=O)N=C(N)N)cc2)cc1OC
IC50 [16]: > 50 µM (inactive)
IC50 [17]: 4.65 µM (active)
